Laboratory results taken from patent US6486177B2, “Methods for treatment of cognitive and menopausal disorders with D-threo methylphenidate” (Celgene Corporation, priority 1995, dated 2002).

Columns and labels:
[1] = D-threo vs DL-threo methylphenidate vs placebo in patients in the context of ADD: objective tests and subjective observations; assay type: in vivo, human; settings: for performance in objective tests: at the 6 hour time point, versus DL-threo racemate or placebo
Description: The present inventors have observed that in the context of ADD, D-threo methylphenidate has a longer duration of action than DL-methylphenidate of at least six hours.
Response by patients with cognitive deficiencies described herein is generally determined by two types of measurements: objective measures of a patient's ability to concentrate and remain focused on a task such as performing a math test; and subjective scores of a patient's performance.

[2] = cited from earlier work
[3] = children suffering from ADHD; Clin. Pharmacol. Ther. 52: 561-568 (1992); cited from earlier work

Compound | performance in objective tests [1] | euphoric effect / potential for abuse ([2]; administered intravenously or through inhalation or ingestion) | undesirable side effects ([2]; use of the racemate) | pharmacodynamic activity / pharmacological effectiveness [3] | persistence of beneficial effects ([1]; D-threo isomer alone versus in combination with the L-threo isomer) | subjective observations: duration of beneficial effects ([1]; same patients, versus DL-threo racemate)
COC(=O)C(c1ccccc1)C1CCCCN1 (racemic) [DL-threo racemate, DL-threo-methylphenidate] | did not perform better after that time period than those who received a placebo | produces a euphoric effect | anorexia, weight loss, insomnia, dizziness and dysphoria | – | – | –
COC(=O)[C@@H](c1ccccc1)[C@@H]1CCCCN1 (single isomer, unassigned) [L isomer, L-threo-methylphenidate, reference compound] | – | – | – | apparently makes no significant contribution to the pharmacological effectiveness of the drug | – | –
COC(=O)[C@H](c1ccccc1)[C@H]1CCCCN1 [D-threo methylphenidate, D-threo-methylphenidate] | performed better in objective tests than patients who received the DL-threo racemate or a placebo | – | – | pharmacodynamic activity of DL-threo-methylphenidate resides in the D-threo isomer | persist for a longer period time when the D-threo isomer is administered alone than when it is administered in combination with the L-threo isomer | experienced beneficial effects of the drug for longer times than did those who received the DL-threo racemate
